Assay: xn = mol fraction of the nth substance listed, in the solute-free solvent

Cl.N=C(N)NC(=N)N1CCOCC1 + O + CC(C)O
solubility (g/100 g solution)
Details | x2 = 0.1 | x2 = 0.2 | x2 = 0.3 | x2 = 0.4 | x2 = 0.5 | x2 = 0.6 | x2 = 0.7 | x2 = 0.8 | x2 = 0.9
283.15 K | 0.441 | 0.892 | 2.04 | 4.24 | 8.16 | 13.2 | 19.8 | 25.8 | 35
293.15 K | 0.499 | 1.2 | 2.75 | 5.73 | 10.6 | 15.4 | 23.9 | 30.8 | 37.5
303.15 K | 0.607 | 1.51 | 3.56 | 7.55 | 13.8 | 20.6 | 29.6 | 36.8 | 44.3
313.15 K | 0.831 | 1.73 | 4.8 | 9.86 | 17.4 | 23.7 | 34.9 | 42.9 | 50.8
323.15 K | 1.11 | 2.09 | 5.83 | 12.6 | 21.2 | 30 | 39.1 | 45.7 | 55.9

Cc1ncc(CO)c(CO)c1O.Cl + O + CCCO
solubility (g/100 g solution)
Details | 278.15 K | 283.15 K | 288.15 K | 293.15 K | 298.15 K | 303.15 K | 308.15 K | 313.15 K
x2 = 0.3 | 0.893 | 1.08 | 1.2 | 1.42 | 1.8 | 2.05 | 2.29 | 2.62
x2 = 0.4 | 1.59 | 1.9 | 2.23 | 2.65 | 3.25 | 3.59 | 4.15 | 4.99
x2 = 0.5 | 2.6 | 3.07 | 3.42 | 4.1 | 5 | 5.68 | 6.43 | 7.5
x2 = 0.6 | 3.83 | 4.45 | 4.91 | 6.02 | 7.03 | 8.29 | 9.47 | 11.3
x2 = 0.7 | 5.37 | 6.24 | 6.84 | 8.27 | 9.8 | 11.7 | 13.3 | 15.1
x2 = 0.8 | 6.99 | 8.36 | 9.28 | 10.7 | 12.8 | 15.4 | 17.8 | 19.6
x2 = 0.9 | 8.57 | 10.3 | 11.9 | 13.8 | 16 | 19 | 21.1 | 24.1

NC(=O)NC1NC(=O)NC1=O (centres undefined) + O + CCO
solubility (g/100 g solution)
Details | 288.15 K | 293.15 K | 298.15 K | 303.15 K | 308.15 K | 313.15 K | 318.15 K | 323.15 K | 328.15 K | 333.15 K
x2 = 0.264 | 0.0433 | 0.0548 | 0.0707 | 0.0891 | 0.116 | 0.137 | 0.163 | 0.189 | 0.225 | 0.262
x2 = 0.447 | 0.0924 | 0.108 | 0.137 | 0.174 | 0.216 | 0.263 | 0.298 | 0.355 | 0.417 | 0.46
x2 = 0.683 | 0.159 | 0.202 | 0.268 | 0.332 | 0.409 | 0.535 | 0.646 | 0.76 | 0.923 | 1.09
x2 = 0.829 | 0.239 | 0.306 | 0.394 | 0.487 | 0.63 | 0.785 | 1.02 | 1.21 | 1.48 | 1.74
x2 = 0.928 | 0.264 | 0.353 | 0.5 | 0.619 | 0.787 | 0.968 | 1.3 | 1.58 | 1.97 | 2.33

C#CC1(O)C=CC2C3CCC4=CC(=O)CCC4C3CCC21CC (centres undefined) + O + CO
288.15 K
Details | solubility (g/100 g solution)
x2 = 0.165 | 4.27
x2 = 0.3077 | 3.7
x2 = 0.4325 | 1.93
x2 = 0.5424 | 1.49
x2 = 0.6401 | 1
x2 = 0.8058 | 0.438
x2 = 0.8767 | 0.371
x2 = 0.9412 | 0.371

NC(=O)NC1NC(=O)NC1=O (centres undefined) + O + CO
solubility (g/100 g solution)
Details | 288.15 K | 293.15 K | 298.15 K | 303.15 K | 308.15 K | 313.15 K | 318.15 K | 323.15 K | 328.15 K | 333.15 K
x2 = 0.2 | 0.0735 | 0.0876 | 0.104 | 0.134 | 0.155 | 0.188 | 0.219 | 0.264 | 0.299 | 0.353
x2 = 0.359 | 0.114 | 0.138 | 0.175 | 0.205 | 0.255 | 0.297 | 0.357 | 0.443 | 0.521 | 0.582
x2 = 0.599 | 0.212 | 0.27 | 0.328 | 0.408 | 0.519 | 0.629 | 0.74 | 0.895 | 1.08 | 1.23
x2 = 0.771 | 0.239 | 0.328 | 0.424 | 0.526 | 0.694 | 0.866 | 1.06 | 1.28 | 1.55 | 1.94
x2 = 0.9 | 0.319 | 0.389 | 0.506 | 0.642 | 0.836 | 1.05 | 1.29 | 1.53 | 1.86 | 2.27

NC(=O)NC1NC(=O)NC1=O (centres undefined) + OCCO + CO
solubility (g/100 g solution)
Details | 288.15 K | 293.15 K | 298.15 K | 303.15 K | 308.15 K | 313.15 K | 318.15 K | 323.15 K | 328.15 K | 333.15 K
x2 = 0.154 | 0.124 | 0.146 | 0.174 | 0.21 | 0.242 | 0.287 | 0.338 | 0.396 | 0.461 | 0.524
x2 = 0.326 | 0.188 | 0.22 | 0.268 | 0.336 | 0.395 | 0.438 | 0.508 | 0.566 | 0.651 | 0.732
x2 = 0.521 | 0.305 | 0.338 | 0.387 | 0.447 | 0.531 | 0.613 | 0.66 | 0.756 | 0.83 | 0.938
x2 = 0.744 | 0.455 | 0.481 | 0.55 | 0.634 | 0.702 | 0.78 | 0.851 | 1 | 1.09 | 1.25

NC(=O)NC1NC(=O)NC1=O (centres undefined) + OCCO + O
solubility (g/100 g solution)
Details | 288.15 K | 293.15 K | 298.15 K | 303.15 K | 308.15 K | 313.15 K | 318.15 K | 323.15 K | 328.15 K | 333.15 K
x2 = 0.075 | 0.367 | 0.468 | 0.57 | 0.749 | 0.887 | 1.12 | 1.37 | 1.67 | 1.93 | 2.38
x2 = 0.177 | 0.387 | 0.478 | 0.581 | 0.732 | 0.858 | 1.02 | 1.24 | 1.47 | 1.75 | 2.09
x2 = 0.327 | 0.439 | 0.481 | 0.62 | 0.747 | 0.847 | 1 | 1.17 | 1.43 | 1.67 | 1.88
x2 = 0.564 | 0.406 | 0.49 | 0.601 | 0.725 | 0.819 | 0.962 | 1.1 | 1.29 | 1.44 | 1.7
x2 = 0.744 | 0.466 | 0.515 | 0.628 | 0.712 | 0.779 | 0.924 | 1.03 | 1.2 | 1.33 | 1.54

Reference: the CheMixHub drug solubility set
